Assay [1] deals with differentiated 3T3-L1 mouse adipocyte cells. The assay is described as follows: Adipocyte glucose consumption in differentiated 3T3-L1 cells (colorimetric glucose assay of the medium). It counts as cell-based. The note with it: 3T3-L1, 24 h, compound 10 μM, loss of glucose from culture medium, mean fold change (compound/DMSO). The method in brief: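 Differentiated 3T3-L1 mouse adipocytes (rosiglitazone/dexamethasone/IBMX/insulin induction, day 11) treated 24 h with compounds at 10 μM, 0.1% DMSO final. Medium glucose measured colorimetrically; consumption taken as glucose loss from medium versus cell-free control, expressed as mean fold change compound/DMSO ±SD.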

The target of assay [2] is T1, His6 tagged human recombinant FABP4 (Homo sapiens, UniProt P15090).
T1 construct: purchased Cayman Chemicals 10009549
T1 sequence (P15090 whole entry): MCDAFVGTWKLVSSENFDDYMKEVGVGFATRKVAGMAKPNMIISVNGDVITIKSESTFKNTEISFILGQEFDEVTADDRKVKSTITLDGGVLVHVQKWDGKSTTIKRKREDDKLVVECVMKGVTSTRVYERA
The assay is described as follows: FABP4 TR-FRET assay: displacement of fluorescent fatty acid BODIPY FL C12. The note with it: inhibition of BODIPY FL C12 binding to His6-FABP4; 1.2 μL of 1.085 mM compound in DMSO per well; triplicates, mean percent inhibition. In a few lines:
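TR-FRET displacement of BODIPY FL C12 from His6-FABP4 bound by Tb-anti-His6 antibody, in Tris pH 7.4 buffer with γ-globulins, NP-40 and DTT; compound stock 1.085 mM in DMSO. Read after 10 min at room temperature as 520/615 nm ratio; mean % inhibition versus DMSO from triplicates.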

As a reminder, the fold induction is the ratio of treated to control signal. Usually inhibition stands for the drop in the measured response relative to a control, in per cent. On to `CCCCCCc1ccc2nc(N(c3nnn[nH]3)C3CC3)cc(-c3ccccc3)c2c1` [N-cyclopropyl-6-hexyl-4-phenyl-N-(1H-1,2,3,4-tetrazol-5-yl)quinolin-2-amine], for which, in assay [1], the fold induction at 10 µM was determined as 1.18. The inhibition at 1085 µM (stock) in assay [2] came out at 84%.

As for `CCCCc1ccc2nc(N(C)CC(=O)O)cc(-c3cccnc3)c2c1` [2-{[6-butyl-4-(pyridin-3-yl)quinolin-2-yl](methyl)amino}acetic acid], in assay [1], the fold induction at 10 µM stood at 1.19. For the same compound, in assay [2], the inhibition at 1085 µM (stock) amounted to 39.2%.

With `CCCCCCCCc1ccc2nc(N(CC)CC(=O)O)cc(-c3ccc(F)cc3)c2c1` [2-{ethyl[4-(4-fluorophenyl)-6-octylquinolin-2-yl]amino}acetic acid], the fold induction at 10 µM in assay [1] amounted to 1.25. The inhibition at 1085 µM (stock) in assay [2] came out at 65.8%.

For `CCCCCCc1ccc2nc(N3CCCC(C(=O)O)C3)cc(-c3cccnc3)c2c1` (centres unmarked) [1-[6-hexyl-4-(pyridin-3-yl)quinolin-2-yl]piperidine-3-carboxylic acid], the fold induction at 10 µM in assay [1] turned out to be 1.09. Besides, the inhibition at 1085 µM (stock) in assay [2] was found to be 91.6%.

`CCCCc1ccc2nc(OCC(=O)O)c(C(=O)O)c(-c3ccccc3)c2c1` [6-butyl-2-(carboxymethoxy)-4-phenylquinoline-3-carboxylic acid]: the fold induction at 10 µM in assay [1] worked out at 0.99. The inhibition at 1085 µM (stock) in assay [2] was found to be 44.6%.

For the compound `CCCCCCc1ccc2nc(N3CC(C(=O)O)CC3=O)cc(-c3ccccc3)c2c1` (centres unmarked) [1-(6-hexyl-4-phenylquinolin-2-yl)-5-oxopyrrolidine-3-carboxylic acid], in assay [1], the fold induction at 10 µM amounted to 1.11. For the same compound, the inhibition at 1085 µM (stock) in assay [2] was 6.12%.

`CCCCCc1ccc2nc(OCC(=O)O)cc(-c3cccc(C(N)=O)c3)c2c1` [2-{[4-(3-carbamoylphenyl)-6-pentylquinolin-2-yl]oxy}acetic acid]: the fold induction at 10 µM in assay [1] came to 1.02. Moreover, the inhibition at 1085 µM (stock) in assay [2] worked out at 74.2%.

As to `CCCCCCc1ccc2nc(N3CCCC3C(=O)O)cc(-c3ccccc3)c2c1` (centres unmarked) [1-(6-hexyl-4-phenylquinolin-2-yl)pyrrolidine-2-carboxylic acid], the fold induction at 10 µM in assay [1] was 1.09. In addition, the inhibition at 1085 µM (stock) in assay [2] is 67.5%.

As for `CCCCc1ccc2nc(N(C)C(C(=O)O)C(C)C)cc(-c3cccc(C#N)c3)c2c1` (centres unmarked) [N-(6-butyl-4-(3-cyanophenyl)quinolin-2-yl)-N-methylvaline?], the fold induction at 10 µM in assay [1] was 1.18. For the same compound, the inhibition at 1085 µM (stock) in assay [2] is 21%.

For `CCCCc1ccc2nc(N(C)CC(=O)O)cc(-c3ccc(C#N)cc3)c2c1` [2-{[6-butyl-4-(4-cyanophenyl)quinolin-2-yl](methyl)amino}acetic acid], in assay [1], the fold induction at 10 µM stood at 1.18. Besides, the inhibition at 1085 µM (stock) in assay [2] came to 16.8%.

As to `COc1ccc(CCc2ccc3nc(N(C)CC(=O)O)cc(-c4ccccc4)c3c2)cc1` [2-({6-[2-(4-methoxyphenyl)ethyl]-4-phenylquinolin-2-yl}(methyl)amino)acetic acid], the fold induction at 10 µM in assay [1] worked out at 1.26. Besides, the inhibition at 1085 µM (stock) in assay [2] stood at 15%.

As for `CCCCc1ccc2nc(N(C)CC(=O)O)cc(-c3ccc(C)cc3)c2c1` [2-{[6-butyl-4-(4-methylphenyl)quinolin-2-yl](methyl)amino}acetic acid], the fold induction at 10 µM in assay [1] was found to be 1.36. Also, the inhibition at 1085 µM (stock) in assay [2] was 30.8%.

With `CCCCc1ccc2nc(N(C)CC(=O)O)cc(-c3cccc(C(N)=O)c3)c2c1` [2-{[6-butyl-4-(3-carbamoylphenyl)quinolin-2-yl](methyl)amino}acetic acid], the fold induction at 10 µM in assay [1] amounted to 1.13. In addition, the inhibition at 1085 µM (stock) in assay [2] was determined as 26.1%.

On to `CCCc1ccc2nc(N(C)CC(=O)O)cc(-c3ccccc3)c2c1` [2-[methyl(4-phenyl-6-propylquinolin-2-yl)amino]acetic acid], for which the fold induction at 10 µM in assay [1] was 1.36. Also, in assay [2], the inhibition at 1085 µM (stock) was 104%.

On to `CN(CC(=O)O)c1cc(-c2ccncc2)c2cc(CCc3ccccn3)ccc2n1` [2-[methyl({6-[2-(pyridin-2-yl)ethyl]-4-(pyridin-4-yl)quinolin-2-yl})amino]acetic acid], for which the fold induction at 10 µM in assay [1] amounted to 1.06. Further, the inhibition at 1085 µM (stock) in assay [2] was 16.1%.

In the case of `O=C(O)C1CC(=O)N(c2cc(-c3ccccc3)c3cc(CCc4ccccc4)ccc3n2)C1` (centres unmarked) [5-oxo-1-[4-phenyl-6-(2-phenylethyl)quinolin-2-yl]pyrrolidine-3-carboxylic acid], in assay [1], the fold induction at 10 µM worked out at 1.24. For the same compound, the inhibition at 1085 µM (stock) in assay [2] worked out at 7.89%.

`CN(CC(=O)O)c1cc(-c2cccc(C(N)=O)c2)c2cc(Br)ccc2n1` [2-{[6-bromo-4-(3-carbamoylphenyl)quinolin-2-yl](methyl)amino}acetic acid]: the fold induction at 10 µM in assay [1] was found to be 1.1. The inhibition at 1085 µM (stock) in assay [2] was 93.8%.

On to `CCCCCCCCc1ccc2nc(N(CCC)CC(=O)O)cc(-c3ccc(F)cc3)c2c1` [2-{[4-(4-fluorophenyl)-6-octylquinolin-2-yl](propyl)amino}acetic acid], for which, in assay [1], the fold induction at 10 µM worked out at 1.2. Moreover, the inhibition at 1085 µM (stock) in assay [2] worked out at 53.1%.

`CCCCCCCCc1ccc2nc(N(C)CC(=O)O)cc(-c3ccccc3)c2c1` [2-[methyl(6-octyl-4-phenylquinolin-2-yl)amino]acetic acid]: the fold induction at 10 µM in assay [1] was determined as 1.52. For the same compound, in assay [2], the inhibition at 1085 µM (stock) came to 99.3%.

As for `CCc1ccc2nc(N(C)CC(=O)O)cc(-c3cccc(C(N)=O)c3)c2c1` [2-{[4-(3-carbamoylphenyl)-6-ethylquinolin-2-yl](methyl)amino}acetic acid], the fold induction at 10 µM in assay [1] worked out at 1.07. Besides, the inhibition at 1085 µM (stock) in assay [2] worked out at 78%.

For `CCCCCc1ccc2nc(N(C)CC(=O)O)cc(-c3ccc(F)cc3)c2c1` [2-{[4-(4-fluorophenyl)-6-pentylquinolin-2-yl](methyl)amino}acetic acid], the fold induction at 10 µM in assay [1] was 1.34. Also, the inhibition at 1085 µM (stock) in assay [2] turned out to be 80.9%.

Take `CN(CC(=O)O)c1cc(-c2ccc(F)cc2)c2cc(-c3ccc(F)cc3)ccc2n1` [2-{[4,6-bis(4-fluorophenyl)quinolin-2-yl](methyl)amino}acetic acid]: the fold induction at 10 µM in assay [1] turned out to be 1.28. Besides, the inhibition at 1085 µM (stock) in assay [2] was 42%.

For `CN(CC(=O)O)c1cc(-c2ccccc2)c2cc(CCc3ccc4nccnc4c3)ccc2n1` [2-[methyl({4-phenyl-6-[2-(quinoxalin-6-yl)ethyl]quinolin-2-yl})amino]acetic acid], in assay [1], the fold induction at 10 µM came out at 1.33. Further, the inhibition at 1085 µM (stock) in assay [2] worked out at 33.6%.

Take `CCCCCCC1CCc2nc(N(C)CC(=O)O)cc(-c3ccccc3)c2C1` (centres unmarked) [2-[(6-hexyl-4-phenyl-5,6,7,8-tetrahydroquinolin-2-yl)(methyl)amino]acetic acid]: the fold induction at 10 µM in assay [1] came out at 1.34. The inhibition at 1085 µM (stock) in assay [2] worked out at 64.5%.

In the case of `CCCCCCc1ccc2nc(OCC(=O)O)cc(-c3cccc(C#N)c3)c2c1` [2-{[4-(3-cyanophenyl)-6-hexylquinolin-2-yl]oxy}acetic acid], the fold induction at 10 µM in assay [1] is 1.02. For the same compound, the inhibition at 1085 µM (stock) in assay [2] was 39.4%.

Regarding `O=C(O)COc1cc(-c2ccccc2)c2cc(Br)ccc2n1` [2-[(6-bromo-4-phenylquinolin-2-yl)oxy]acetic acid], the fold induction at 10 µM in assay [1] is 1.01. Further, in assay [2], the inhibition at 1085 µM (stock) was found to be 35%.

Consider `CCCCCCc1ccc2nc(N(C)CC(C)C(=O)O)cc(-c3ccccc3)c2c1` (centres unmarked) [3-[(6-hexyl-4-phenylquinolin-2-yl)(methyl)amino]-2-methylpropanoic acid], for which the fold induction at 10 µM in assay [1] was 1.31. In assay [2], the inhibition at 1085 µM (stock) stood at 89.7%.

Turning to `CCCCCc1ccc2nc(N(C)CC(=O)O)cc(-c3ccccc3)c2c1` [2-[methyl(6-pentyl-4-phenylquinolin-2-yl)amino]acetic acid], the fold induction at 10 µM in assay [1] came to 1.32. The inhibition at 1085 µM (stock) in assay [2] amounted to 90.5%.

Turning to `Cc1ccccc1CCc1ccc2nc(N(C)CC(=O)O)cc(-c3ccccc3)c2c1` [2-[methyl({6-[2-(2-methylphenyl)ethyl]-4-phenylquinolin-2-yl})amino]acetic acid], the fold induction at 10 µM in assay [1] was determined as 1.4. Also, in assay [2], the inhibition at 1085 µM (stock) is 38.2%.

With `CN(c1cc(-c2ccccc2)c2cc(CCc3ccccc3)ccc2n1)c1nnn[nH]1` [N-methyl-4-phenyl-6-(2-phenylethyl)-N-(1H-1,2,3,4-tetrazol-5-yl)quinolin-2-amine], the fold induction at 10 µM in assay [1] is 1.17. For the same compound, in assay [2], the inhibition at 1085 µM (stock) amounted to 76.3%.

As to `CN(CC(=O)O)c1cc(-c2ccccc2)c2cc(CCc3ccnc4[nH]ccc34)ccc2n1` [2-{methyl[4-phenyl-6-(2-{1H-pyrrolo[2,3-b]pyridin-4-yl}ethyl)quinolin-2-yl]amino}acetic acid], the fold induction at 10 µM in assay [1] is 1.26. In addition, the inhibition at 1085 µM (stock) in assay [2] was determined as 29.8%.

`CN(CC(=O)O)c1cc(-c2cccc(C#N)c2)c2cc(Br)ccc2n1` [2-{[6-bromo-4-(3-cyanophenyl)quinolin-2-yl](methyl)amino}acetic acid]: the fold induction at 10 µM in assay [1] was 1.16. The inhibition at 1085 µM (stock) in assay [2] was 91.1%.

Consider `CCCCCCc1ccc2nc(N3CCCCC3)cc(-c3ccccc3)c2c1` [6-hexyl-4-phenyl-2-(piperidin-1-yl)quinoline], for which the fold induction at 10 µM in assay [1] came out at 1.18. Moreover, the inhibition at 1085 µM (stock) in assay [2] was determined as 46.3%.

Consider `CCCCc1ccc2nc(N(C)CC(=O)O)cc(-c3ccccc3C)c2c1` [2-{[6-butyl-4-(2-methylphenyl)quinolin-2-yl](methyl)amino}acetic acid], for which, in assay [1], the fold induction at 10 µM stood at 1.27. For the same compound, the inhibition at 1085 µM (stock) in assay [2] was 99.7%.

For the origin of these results see patent US20230183179A1, “NOVEL CELL METABOLISM MODULATING COMPOUNDS AND USES THEREOF” (CRESCENTA BIOSCIENCES, priority 2020, published 2023).
